Laboratory results from patent publication US6555333B1, “Broad spectrum fastidious organism culture medium” (priority 2002, dated 2003).
Like-named read-outs stand apart in the source and are kept apart here.

Legend:
[1] = tested on: Viridans streptococci; assay: MIC testing (Etest strip) on the culture medium of Example 1; format: cell-based; settings: for Observed MIC Breakpoints I: I = intermediate; for Observed MIC Breakpoints R: R = resistant; for Observed MIC Breakpoints S: S = susceptible
Description: (§1) The culture medium of the invention was used in both Minimum Inhibitory Concentration (MIC) testing and Bauer-Kirby Disk Susceptibility testing for the pathogenic bacteria noted in the table below with the antimicrobial agents noted therein using the protocol and standards set forth in NCCLS Bulletin No. M2-A7 and in the Supplemental Tables appendix thereto, the disclosures of which are incorporated herein by reference.
(§2) The general procedure was as follows: pathogenic bacteria specimens were obtained from American Type Culture Collection control lots and 10 isolates were obtained from all species except Campylobacter, from which 6 isolates were obtained. Petri dishes 150 mm in diameter were autoclaved and filled with the culture medium of Example 1 and brought to room temperature. Each plate was then swab-inoculated with a suspension of one of the pathogenic bacteria equivalent to a 0.5 McFarland Standard, and then the antimicrobial-impregnated disk or antimicrobial-impregnated strip for IC measurement (Etest strip from Biodisk AB, of Solna, Sweden) were pressed into the surface of the culture medium. The plates were incubated at 35° C. for 24 hours in atmospheres containing 5-7% CO2 and the disk diffusion zones were measured, with the exception that plates inoculated with the Campylobacter species were placed into microaerophilic chambers from Mitsubishi Gas & Chemical Co. of Japan and incubated at 35° C. for 48 hours. The tests were conducted in duplicate for each pathogenic bacteria/antimicrobial agent combination on three batches of the culture medium of Example 1, for a total of six tests for each combination. Geometric mean MIC values and arithmetic mean values of zone diameters from the Disk Diffusion tests were calculated from the data, and are reported in the table below.

[2] = tested on: Neisseria meningitides; assay: as above; format: cell-based
Description: as §1, §2

[3] = tested on: S. pneumoniae; assay: as above; format: cell-based; settings: for Observed MIC Breakpoints I: I = intermediate; for Observed MIC Breakpoints R: R = resistant; for Observed MIC Breakpoints S: S = susceptible
Description: as §1, §2

[4] = tested on: β-hemolytic streptococci; assay: as above; format: cell-based; settings: for Observed MIC Breakpoints S: S = susceptible
Description: as §1, §2

[5] = tested on: Neisseria gonorrhoeae; assay: as above; format: cell-based; settings: for Observed MIC Breakpoints I: I = intermediate; for Observed MIC Breakpoints R: R = resistant; for Observed MIC Breakpoints S: S = susceptible
Description: as §1, §2

[6] = tested on: Viridans streptococci; settings: different known culture media; cited from earlier work
[7] = tested on: S. pneumoniae; settings: different known culture media, cited from earlier work
[8] = tested on: Neisseria gonorrhoeae; settings: different known culture media; cited from earlier work
[9] = tested on: Viridans streptococci; assay: Bauer-Kirby Disk Susceptibility testing on the culture medium of Example 1; format: cell-based; settings: for Observed Disk Diff. Breakpoints I: I = intermediate; for Observed Disk Diff. Breakpoints R: R = resistant; for Observed Disk Diff. Breakpoints S: S = susceptible
Description: as §1, §2

[10] = tested on: Neisseria meningitides; assay: as above; format: cell-based
Description: as §1, §2

[11] = tested on: β-hemolytic streptococci; assay: as above; format: cell-based; settings: for Observed Disk Diff. Breakpoints R: R = resistant
Description: as §1, §2

[12] = tested on: Neisseria gonorrhoeae; assay: as above; format: cell-based; settings: for Observed Disk Diff. Breakpoints I: I = intermediate; for Observed Disk Diff. Breakpoints R: R = resistant
Description: as §1, §2

[13] = tested on: Campylobacter species; assay: MIC testing (Etest strip) on the culture medium of Example 1; format: cell-based; settings: microaerophilic, 48 hours; for Observed MIC Breakpoints R: R = resistant; for Observed MIC Breakpoints S: S = susceptible
Description: as §1, §2

[14] = tested on: β-hemolytic streptococci; settings: different known culture media; cited from earlier work
[15] = tested on: Campylobacter species; assay: Bauer-Kirby Disk Susceptibility testing on the culture medium of Example 1; format: cell-based; settings: microaerophilic, 48 hours; for Observed Disk Diff. Breakpoints R: R = resistant; for Observed Disk Diff. Breakpoints S: S = susceptible
Description: as §1, §2

[16] = tested on: S. pneumoniae; assay: as above; format: cell-based; settings: for Observed Disk Diff. Breakpoints I: I = intermediate; for Observed Disk Diff. Breakpoints R: R = resistant; for Observed Disk Diff. Breakpoints S: S = susceptible
Description: as §1, §2

Compound | Observed MIC Breakpoints I [1] | Observed MIC Breakpoints R [1] | Observed MIC Breakpoints S [1] | Observed MIC Breakpoints R ([3]; Lower Respiratory Tract) | Observed MIC Breakpoints S ([3]; Lower Respiratory Tract) | Observed MIC Breakpoints I ([3]; meningitis) | Observed MIC Breakpoints R ([3]; meningitis) | Observed MIC Breakpoints S ([3]; meningitis) | Observed MIC Breakpoints S [4] | Observed MIC Breakpoints I [5] | Observed MIC Breakpoints R [5] | Observed MIC Breakpoints S [5] | Reported MIC Breakpoints [6] | Reported MIC Breakpoints ([7]; meningitis) | Reported MIC Breakpoints [8] | Observed Disk Diff. Breakpoints I [9] | Observed Disk Diff. Breakpoints R [9] | Observed Disk Diff. Breakpoints S [9] | Observed Disk Diff. Breakpoints R [11] | Observed Disk Diff. Breakpoints I [12] | also measured
Penicillin | 2 µg/mL | ≧4 μg/mL | ≦1 μg/mL | ≧4 μg/mL | ≦1 μg/mL | 0.25 to 1 µg/mL | ≧2 μg/mL | ≦0.12 μg/mL | 0.12 µg/mL | 0.12 to 1 µg/mL | ≧2 μg/mL | ≦0.06 μg/mL | (0.12-4) μg/mL | (0.06-2) μg/mL | (0.06-2) μg/mL | 20-23 mm | ≦19 mm | ≧24 mm | ≦26 mm | 24-38 mm | Observed MIC Breakpoints I ([2]; I = intermediate): 0.25 µg/mL; Observed MIC Breakpoints R ([2]; R = resistant): ≧0.5 μg/mL; Observed MIC Breakpoints S ([2]; S = susceptible): ≦0.12 μg/mL; Observed MIC Breakpoints I ([3]; Lower Respiratory Tract): 2 µg/mL; Observed Disk Diff. Breakpoints I ([10]; I = intermediate): 24-25 mm; Observed Disk Diff. Breakpoints R ([10]; R = resistant): ≦23 mm; Observed Disk Diff. Breakpoints S ([10]; S = susceptible): ≧26 mm; Observed Disk Diff. Breakpoints R [12]: ≦23 mm
CC[C@H]1OC(=O)[C@H](C)[C@@H](O[C@H]2C[C@@](C)(OC)[C@@H](O)[C@H](C)O2)[C@H](C)[C@@H](O[C@@H]2O[C@H](C)C[C@H](N(C)C)[C@H]2O)[C@](C)(O)C[C@@H](C)C(=O)[C@H](C)[C@@H](O)[C@]1(C)O [Erythromycin] | 1 to 32 µg/mL | ≧64 μg/mL | ≦0.5 μg/mL |  |  |  |  |  | ≦0.5 μg/mL |  |  |  | (0.25-1) μg/mL |  |  | 9-23 mm | ≦8 mm | ≧24 mm | ≦8 mm |  | Observed MIC Breakpoints R [13]: ≧8 μg/mL; Observed MIC Breakpoints S [13]: ≦4 μg/mL; Observed MIC Breakpoints I [3]: 1 to 32 µg/mL; Observed MIC Breakpoints R [3]: ≧64 μg/mL; Observed MIC Breakpoints S [3]: ≦0.5 μg/mL; Observed MIC Breakpoints I ([4]; I = intermediate): 1 to 32 µg/mL; Observed MIC Breakpoints R ([4]; R = resistant): ≧64 μg/mL; Reported MIC Breakpoints [14]: (0.25-1) μg/mL; Reported MIC Breakpoints [7]: (0.25-1) μg/mL; Observed Disk Diff. Breakpoints R [15]: ≦20 mm; Observed Disk Diff. Breakpoints S [15]: ≧21 mm; Observed Disk Diff. Breakpoints I [16]: 9-23 mm; Observed Disk Diff. Breakpoints R [16]: ≦8 mm; Observed Disk Diff. Breakpoints S [16]: ≧24 mm; Observed Disk Diff. Breakpoints S ([11]; S = susceptible): ≧21 mm
CO/N=C(\C(=O)N[C@@H]1C(=O)N2C(C(=O)O)=C(COC(C)=O)CS[C@H]12)c1csc(N)n1 [Cefotaxime] |  | ≧8 μg/mL |  | ≧8 μg/mL | ≦4 μg/mL | 1 µg/mL | ≧2 μg/mL | ≦0.5 μg/mL |  |  |  |  | (0.5-2) μg/mL | (0.5-2) μg/mL |  |  | ≦23 mm | ≧24 mm |  |  | Observed Disk Diff. Breakpoints R ([16]; Lower Respiratory Tract): ≦23 mm; Observed Disk Diff. Breakpoints S ([16]; Lower Respiratory Tract): ≧24 mm; Observed Disk Diff. Breakpoints I ([16]; meningitis): 26-27 mm; Observed Disk Diff. Breakpoints R ([16]; meningitis): ≦25 mm; Observed Disk Diff. Breakpoints S ([16]; meningitis): ≧28 mm
O=C(O)c1cn(C2CC2)c2cc(N3CCNCC3)c(F)cc2c1=O [Ciprofloxacin] |  |  |  |  |  |  |  |  |  | 0.12 to 0.5 µg/mL | ≧1 μg/mL | ≦0.06 μg/mL |  |  | (0.06-1) μg/mL |  |  |  |  | 25-34 mm | Observed MIC Breakpoints I ([13]; I = intermediate): 1 to 2 µg/mL; Observed MIC Breakpoints R [13]: ≧4 μg/mL; Observed MIC Breakpoints S [13]: ≦0.5 μg/mL; Observed Disk Diff. Breakpoints I ([15]; I = intermediate): 19-26 mm; Observed Disk Diff. Breakpoints R [15]: ≦18 mm; Observed Disk Diff. Breakpoints S [15]: ≧27 mm; Observed Disk Diff. Breakpoints R [12]: ≦24 mm; Observed Disk Diff. Breakpoints S ([12]; S = susceptible): ≧35 mm
